According to ChEMBL document CHEMBL1130062 (J Med Chem, 1997):

What was measured:
[1] = biological target: T1, Dihydrofolate reductase (Pneumocystis carinii, UniProt P16184)
T1 sequence (P16184 whole entry): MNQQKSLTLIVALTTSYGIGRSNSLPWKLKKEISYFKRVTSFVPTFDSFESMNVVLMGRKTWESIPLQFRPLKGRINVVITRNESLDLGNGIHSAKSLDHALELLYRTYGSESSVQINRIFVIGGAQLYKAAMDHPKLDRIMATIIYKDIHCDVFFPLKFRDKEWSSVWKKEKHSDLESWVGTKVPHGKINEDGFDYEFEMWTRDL
Description: In vitro inhibitory concentration against Pneumocystis carinii dihydrofolate reductase

[2] = system: Pneumocystis carinii; assay: Concentration required to inhibit uptake of [3H]4-aminobenozoic acid over 24 hr against Pneumocystis carinii microorganisms extracted from immunocompromized rats.; conditions: Rattus norvegicus
[3] = Selectivity index measured as the ratio of IC50 for rat liver DHFR to IC50 for Toxoplasma gondii DHFR.
[4] = biological target: T2, Bifunctional dihydrofolate reductase-thymidylate synthase (Toxoplasma gondii, UniProt Q07422); assay: Inhibitory concentration against Toxoplasma gondii dihydrofolate reductase
T2 sequence (Q07422 whole entry): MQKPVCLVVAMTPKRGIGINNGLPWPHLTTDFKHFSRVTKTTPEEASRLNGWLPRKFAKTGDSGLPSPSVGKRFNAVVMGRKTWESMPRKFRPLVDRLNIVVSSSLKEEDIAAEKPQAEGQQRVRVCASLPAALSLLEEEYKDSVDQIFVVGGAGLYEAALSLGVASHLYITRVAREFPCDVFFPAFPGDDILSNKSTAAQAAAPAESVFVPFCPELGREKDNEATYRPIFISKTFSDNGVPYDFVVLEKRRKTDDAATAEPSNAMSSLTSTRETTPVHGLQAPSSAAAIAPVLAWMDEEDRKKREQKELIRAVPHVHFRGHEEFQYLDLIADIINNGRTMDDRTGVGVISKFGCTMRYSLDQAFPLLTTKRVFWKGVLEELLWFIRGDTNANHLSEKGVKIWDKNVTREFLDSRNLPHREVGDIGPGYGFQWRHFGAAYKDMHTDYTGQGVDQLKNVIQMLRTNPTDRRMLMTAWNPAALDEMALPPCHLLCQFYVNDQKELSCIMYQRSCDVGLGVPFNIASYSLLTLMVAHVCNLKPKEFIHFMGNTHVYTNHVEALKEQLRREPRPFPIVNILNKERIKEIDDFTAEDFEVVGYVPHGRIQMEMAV

Compound | IC50 [1] [µM] | other results
CCCN(CCO)/N=N/c1cc(-c2c(N)nc(N)nc2CC)ccc1Cl | 2.5 | –
CCc1nc(N)nc(N)c1-c1ccc(Cl)c(/N=N/N(CCO)CCO)c1 | 0.44 | IC50 [2]: 46.6 µg/mL
CCc1nc(N)nc(N)c1-c1ccc(Cl)c([N+](=O)[O-])c1 | – | Selectivity index [3]: 1.1; IC50 [4]: 0.013 µM
N=C(N)c1ccc(OCCCCCOc2ccc(C(=N)N)cc2)cc1 | – | IC50 [2]: 2.5 µM
CCc1nc(N)nc(N)c1-c1ccc(Cl)c(/N=N/N(CCO)Cc2ccccc2)c1 | 0.26 | IC50 [2]: 11.1 µg/mL
CCc1nc(N)nc(N)c1-c1ccc(Cl)c(/N=N/N(C)CC2OCCO2)c1 | 0.57 | Selectivity index [3]: 28
CCc1nc(N)nc(N)c1-c1ccc(Cl)c([N+]#N)c1 | – | IC50 [4]: 0.023 µM
CCc1nc(N)nc(N)c1-c1ccc(Cl)c(/N=N/N(CCOC(C)=O)Cc2ccccc2)c1 | – | IC50 [2]: 43.9 µg/mL
CCc1nc(N)nc(N)c1-c1ccc(Cl)c(/N=N/N(CCOC)CCOC)c1 | – | Selectivity index [3]: 3; IC50 [2]: 30.5 µg/mL; IC50 [4]: 8.8 µM
CCc1nc(N)nc(N)c1-c1ccc(N(C)Cc2ccccc2)c([N+](=O)[O-])c1 | – | IC50 [4]: 0.091 µM
CCc1nc(N)nc(N)c1-c1ccc(Cl)c(/N=N/N2CCOCC2)c1 | – | IC50 [2]: 49.7 µg/mL; IC50 [4]: 0.19 µM
CCc1nc(N)nc(N)c1-c1ccc(Cl)c(/N=N/N(C)CCO)c1 | 3.5 | –
CCc1nc(N)nc(N)c1-c1ccc(Cl)c(/N=N/N(CCO)C(C)(C)C)c1 | 4.9 | –
CCc1nc(N)nc(N)c1-c1ccc(Cl)c(/N=N/N(CC)CCO)c1 | 11.5 | –
CCc1nc(N)nc(N)c1-c1ccc(Cl)c(/N=N/N2CCC(O)CC2)c1 | 3.3 | –

Second part, led by results:

IC50 [1] [µM] | Compound | other results
14.1 | CCc1nc(N)nc(N)c1-c1ccc(Cl)c(/N=N/N(C)CC)c1 [listing 1 of 2 here] | –
0.57 | CCc1nc(N)nc(N)c1-c1ccc(Cl)c(/N=N/N(C)Cc2ccccc2)c1 | –
> 11 | CCc1nc(N)nc(N)c1-c1ccc(Cl)c(/N=N/N(C(C)(C)C)C(C)(C)C)c1 | –
40.4 | CCc1nc(N)nc(N)c1-c1ccc(Cl)c(/N=N/N2CCCCC2)c1 | –
10.6 | CCc1nc(N)nc(N)c1-c1ccc(Cl)c(/N=C/N(C)C)c1 | IC50 [4]: 1.6 µM
5 | CCc1nc(N)nc(N)c1-c1ccc(Cl)c(/N=N/N2CCc3ccccc3C2)c1 | –
7.6 | CCCN(C)/N=N/c1cc(-c2c(N)nc(N)nc2CC)ccc1Cl [listing 1 of 2 here] | –
6.6 | CCc1nc(N)nc(N)c1-c1ccc(Cl)c(/N=N/N(C)CC)c1 [listing 2 of 2 here] | –
1.33 | CCc1nc(N)nc(N)c1-c1ccc(Cl)c(N=[N+]=[N-])c1 | Selectivity index [3]: 0.5; IC50 [4]: 0.69 µM
10.2 | CCCN(C)/N=N/c1cc(-c2c(N)nc(N)nc2CC)ccc1Cl [listing 2 of 2 here] | –
8.5 | CCc1nc(N)nc(N)c1-c1ccc(Cl)c(/N=N/N2CCN(C)CC2)c1 | –
> 11 | CCc1nc(N)nc(N)c1-c1ccc(Cl)c(/N=N/N2CCCC2)c1 | –
2.8 | CCc1nc(N)nc(N)c1-c1ccc(Cl)c(/N=N/N(C)C)c1 [listing 1 of 2 here] | IC50 [4]: 0.31 µM
6 | CCc1nc(N)nc(N)c1-c1ccc(Cl)c(/N=N/N(C)C)c1 [listing 2 of 2 here] | –
